Measurements reported in patent publication US20090142323A1, “METHODS FOR TREATING A DISORDER BY REGULATING GPRC6A” (priority 2007, published 2009).

Columns and labels:
GPRC6A [1] = target: T1, GPRC6A (Mus musculus, UniProt Q8K4Z6); assay: phospho-ERK activation in HEK-293 cells transfected with GPRC6A (immunoblot); format: cell-based; parameters: expressed in transfected cells; host or cells: HEK-293; details: for inhibition of testosterone stimulated GPRC6A-mediated activation of phospho-ERK: 10 μM PD89059, 50 μM Ly294002, 2 μM U73122, 10 μM PP-1; for block of GPRC6A-mediated extracellular testosterone stimulated signaling: either phospho-ERK or SRE-luciferase as read-outs
T1 sequence (Q8K4Z6 21-928): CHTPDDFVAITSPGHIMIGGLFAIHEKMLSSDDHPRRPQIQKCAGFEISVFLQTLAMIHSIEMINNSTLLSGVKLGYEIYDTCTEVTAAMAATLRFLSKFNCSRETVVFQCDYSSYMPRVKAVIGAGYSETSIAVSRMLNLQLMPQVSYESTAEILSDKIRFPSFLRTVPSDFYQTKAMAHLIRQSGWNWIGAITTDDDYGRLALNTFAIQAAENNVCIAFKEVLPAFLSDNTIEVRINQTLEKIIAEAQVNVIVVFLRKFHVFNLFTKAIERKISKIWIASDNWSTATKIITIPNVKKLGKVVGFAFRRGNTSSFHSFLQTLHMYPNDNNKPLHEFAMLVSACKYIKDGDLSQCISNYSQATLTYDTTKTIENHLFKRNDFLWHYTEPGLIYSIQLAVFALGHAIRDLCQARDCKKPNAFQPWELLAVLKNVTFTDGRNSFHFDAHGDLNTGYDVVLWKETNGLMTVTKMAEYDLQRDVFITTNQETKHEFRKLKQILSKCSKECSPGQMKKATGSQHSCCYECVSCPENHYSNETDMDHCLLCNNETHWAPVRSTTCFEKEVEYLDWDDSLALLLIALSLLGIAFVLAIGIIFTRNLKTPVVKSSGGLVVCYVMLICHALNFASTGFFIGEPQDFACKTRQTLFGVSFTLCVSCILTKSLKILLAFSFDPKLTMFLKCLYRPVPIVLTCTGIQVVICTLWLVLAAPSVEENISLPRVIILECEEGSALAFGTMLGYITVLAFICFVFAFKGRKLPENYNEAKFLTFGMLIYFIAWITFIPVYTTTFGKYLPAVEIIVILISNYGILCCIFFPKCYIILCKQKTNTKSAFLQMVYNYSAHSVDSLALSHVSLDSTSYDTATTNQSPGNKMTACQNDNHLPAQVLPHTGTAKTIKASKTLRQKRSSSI
Method: (§1) Equal amounts of lysates were subjected to 10% SDS-PAGE, and phospho-ERK1/2 levels were determined by immunoblotting using antiphospho-ERK1/2 mitogen-activated protein kinase antibody (Cell Signaling Technology). […] An anti-peptide antibody was raised in a rabbit against a peptide ([…] (SEQ ID NO: 27)) corresponding to a sequence in the extracellular domain of mouse GPRC6A (in exon 1 of mouse GPRC6A gene) produced by Abgent (San Diego, Calif.). For phospho-ERK, the phospho-ERK1/2 levels were determined by immunoblotting using anti-phospho-ERK1/2 mitogen-activated protein kinase antibody (Cell Signaling Technology). Urinary β2-microglobulin was detected by rabbit polyclonal anti-β2-microglobulin antibody (Abcam Inc.). For aromatase expression analysis, the rabbit polyclonal anti-aromatase antibody (Abcam Inc.) and goat anti-rabbit IgG HRP secondary antibody (Santa Cruz Biotechnology Inc.) were used. Mouse anti-Actin antibody (Santa Cruz Biotechnology Inc.) was used for control protein loading.

GPRC6A [2] = target: T1, GPRC6A; assay: SRE-luciferase reporter in HEK-293 cells co-transfected with pcDNA3.mGPRC6A; format: cell-based; parameters: expressed in transfected cells; host or cells: HEK-293; details: for inhibition of R1881 stimulated GPRC6A-mediated activation of luciferase: SRE-luciferase
Method: HEK-293 cells were co-transfected with pcDNA3.mGPRC6A and SRE-luciferase reporter gene plasmid. […] Luciferase activity was assessed after 6 h of stimulation. The luciferase activity in cell extracts was measured using the luciferase assay system (Promega) following the manufacturer's protocol using a BG-luminometer (Gem Biomedical, Inc., Hamden, Conn.).

GPRC6A [3] = target: T1, GPRC6A; parameters: expressed in transfected cells; details: in vitro; cited from earlier work
[4] = test system: bone marrow stromal cells (BMSC); assay: phospho-ERK in bone marrow stromal cells from wild-type and GPRC6A-/- mice; format: cell-based, mouse
Method: The femurs and tibias from 8-week-old wild-type and GPRC6A^−/− mice were dissected, the ends of the bones were cut, and marrow was flushed out with 2 mL of ice-cold a-MEM containing 10% FBS using a needle and syringe. A suspension of bone marrow cells was obtained by repeated aspiration of the cell preparation through a 22-gauge needle, and nucleated cells were counted with a hemocytometer. Cells were seeded into 6-well plates at a density of 3×10^7 cells/mL and cultured for three days in a-MEM supplemented with 10% FBS, 100 kU/L of sodium penicillin G and 100 mg/L of streptomycin sulfate in a humidified incubator with 5% CO2 and 95% air at a temperature of 37° C. On day 3, all nonadherent cells were then removed with the first medium change and then the adherent cells (representing bone marrow-derived mesenchymal stem cells, BMSCs) were grown for additional periods of up 3 days in the same medium. After overnight quiescence, the cells were stimulated for 5 minutes by testosterone and p-estradiol at the concentrations as indicated.

osteoblastic cells = details: 10 nM; cited from earlier work
HEK-293 cells = assay: phospho-ERK in non-transfected HEK-293 control cells; format: cell-based, human; details: control HEK293, no GPRC6A
Method: as §1

[5] = target: T2, calcium sensing receptor (CASR) (Rattus norvegicus, UniProt P48442); assay: phospho-ERK in HEK-293 cells transfected with calcium sensing receptor; format: cell-based; details: HEK293 transfected with CASR
T2 construct: expressed in transfected cells; host or cells: HEK-293
T2 sequence (P48442 20-1079): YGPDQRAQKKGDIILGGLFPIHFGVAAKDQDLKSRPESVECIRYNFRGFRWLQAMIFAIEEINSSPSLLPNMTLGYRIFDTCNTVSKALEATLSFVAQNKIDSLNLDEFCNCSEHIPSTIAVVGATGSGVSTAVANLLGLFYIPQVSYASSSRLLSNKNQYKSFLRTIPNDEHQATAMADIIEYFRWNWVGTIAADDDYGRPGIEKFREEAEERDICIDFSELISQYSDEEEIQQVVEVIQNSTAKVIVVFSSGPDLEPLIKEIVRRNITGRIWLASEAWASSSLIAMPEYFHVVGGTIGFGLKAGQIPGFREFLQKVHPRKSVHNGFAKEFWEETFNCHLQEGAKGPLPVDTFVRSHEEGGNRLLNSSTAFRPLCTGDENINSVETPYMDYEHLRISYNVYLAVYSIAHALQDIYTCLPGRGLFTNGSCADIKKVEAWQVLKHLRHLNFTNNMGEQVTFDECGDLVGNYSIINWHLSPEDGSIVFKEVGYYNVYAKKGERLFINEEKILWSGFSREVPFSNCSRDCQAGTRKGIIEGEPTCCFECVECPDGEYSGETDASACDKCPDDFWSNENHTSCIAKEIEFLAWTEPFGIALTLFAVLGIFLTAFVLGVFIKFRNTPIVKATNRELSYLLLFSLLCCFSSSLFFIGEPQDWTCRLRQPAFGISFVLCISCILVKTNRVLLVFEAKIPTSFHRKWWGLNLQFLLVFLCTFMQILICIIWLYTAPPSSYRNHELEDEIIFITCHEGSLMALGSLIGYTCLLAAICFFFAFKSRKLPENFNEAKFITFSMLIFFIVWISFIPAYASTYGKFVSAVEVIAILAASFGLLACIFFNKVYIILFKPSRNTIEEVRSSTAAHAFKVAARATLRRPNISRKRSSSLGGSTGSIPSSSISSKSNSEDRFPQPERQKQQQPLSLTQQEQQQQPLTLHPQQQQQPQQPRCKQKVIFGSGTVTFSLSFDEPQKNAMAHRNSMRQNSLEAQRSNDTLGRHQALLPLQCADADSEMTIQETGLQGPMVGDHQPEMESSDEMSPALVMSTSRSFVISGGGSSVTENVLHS
Method: as §1

[6] = test system: LNCaP prostate cancer cell line; details: 10 nM, within minutes; cited from earlier work
GPRC6A [7] = target: T1, GPRC6A; assay: phospho-Src and phospho-Raf-1 western blot, GPRC6A-mediated; format: cell-based; parameters: expressed in transfected cells
Description: Several physiological processes arising as a result of the rapid action of the Src-Ras-ERK signaling pathway in steroids non-genomic action also have been reported. To define the role of GPRC6A in androgen-mediated cell signaling activation, we examine the Src and Raf-1 are involved in GPRC6A-mediated androgen stimulated intercellular signaling pathway.

[8] = HEK-293 cells transfected with GPRC6A
[9] = BMSC from GPRC6A-/- mice, testosterone up to 80 nM

For `COc1cccc(-c2cc(=O)c3ccccc3o2)c1N` [PD89059], the “inhibition of testosterone stimulated GPRC6A-mediated activation of phospho-ERK” value (“inhibition … of phospho-ERK” below) (GPRC6A [1]) was “inhibited”, the “block of GPRC6A-mediated extracellular testosterone stimulated signaling” value (GPRC6A [1]) was “blocked” and the “inhibition of R1881 stimulated GPRC6A-mediated activation of luciferase” value (shortened to “inhibition … of luciferase”) (GPRC6A [2]) was “inhibited”.

For osteocalcin, the “functional responses of GPRC6A to extracellular calcium” value (GPRC6A [3]) is listed as “enhance the functional responses of GPRC6A to extracellular calcium”.

With `CC(C)CCC[C@@H](C)[C@H]1CC[C@H]2[C@@H]3CC=C4C[C@@H](O)CC[C@]4(C)[C@H]3CC[C@]12C` [cholesterol] the “GPRC6A-mediated activation of phospho-ERK” value (GPRC6A [1]; [8]) was “stimulated the GPRC6A-mediated activation of phospho-ERK”.

For `C=C1/C(=C\C=C2/CCC[C@]3(C)[C@@H]([C@H](C)CCCC(C)(C)O)CC[C@@H]23)C[C@@H](O)C[C@@H]1O` [1,25(OH)2Vit D3], the “GPRC6A-mediated activation of phospho-ERK” value (GPRC6A [1]; [8]) was “stimulated the GPRC6A-mediated activation of phospho-ERK”.

In the case of `COc1cccc([C@@H](C)NCCCc2ccccc2Cl)c1` [NPS-R568], the “stimulation of phospho-ERK in BMSC” value [4, 9] is reported as “failed to responds” and the “stimulation of phospho-ERK in BMSC” value ([4]; BMSC from wild-type mice) is reported as “stimulation of ERK phosphorylation”.

In the case of `C[C@]12CCC(=O)C[C@@H]1CC[C@@H]1[C@@H]2CC[C@]2(C)[C@@H](O)CC[C@@H]12` [DHT], the Akt activity (osteoblastic cells) is given as “stimulation of Akt activity”.

For `C[C@]1(O)CC[C@H]2[C@@H]3CCC4=CC(=O)CCC4=C3C=C[C@@]21C` [R1881], the phospho-ERK response (HEK-293 cells) is listed as “did not responded”, the phospho-ERK response [5] is listed as “did not responded” and the Src kinase activity [6] is listed as “stimulation of Src kinase activity”. The “GPRC6A-mediated activation of phospho-Raf-1” value (GPRC6A [7]) was “stimulated”, the “GPRC6A-mediated activation of phospho-Src” value (GPRC6A [7]) was “stimulated GPRC6A-mediated activation of phospho-Src” and the “GPRC6A-mediated activation of phospho-ERK” value (GPRC6A [1]; [8]) was “stimulated extracellular signal-regulated kinase phosphorylation (phospho-ERK) in a dose-dependent fashion”. For the same molecule, the “GPRC6A mediated activation of luciferase” value (GPRC6A [2]; SRE-luciferase reporter, HEK-293) was “stimulated the GPRC6A mediated activation of luciferase”.

With `COc1ccc2c(c1)CC[C@@H]1[C@@H]2CC[C@]2(C)[C@@H](NCCCCCCN3C(=O)C=CC3=O)CC[C@@H]12` [U73122] the “inhibition … of phospho-ERK” value (GPRC6A [1]) was “inhibited”.

For `Cc1ccc(-c2nn(C(C)(C)C)c3ncnc(N)c23)cc1` [PP-1], the “inhibition … of phospho-ERK” value (GPRC6A [1]) was “inhibited”, the “block of GPRC6A-mediated extracellular testosterone stimulated signaling” value (GPRC6A [1]) was “blocked” and the “inhibition … of luciferase” value (GPRC6A [2]) was “inhibited”.

With `C[C@]12CC[C@@H]3c4ccc(O)cc4CC[C@H]3[C@@H]1CC[C@@H]2O` [17p-estradiol] the “GPRC6A-mediated activation of phospho-ERK” value (GPRC6A [1]; [8]) was “stimulated the GPRC6A-mediated activation of phospho-ERK” and the “concentration required to activate GPRC6A (phosphorylation of ERK)” value (GPRC6A [1]; [8]) was 60 to 80 nM.

In the case of `Cn1cc(C2=C(c3cn(CCCSC(=N)N)c4ccccc34)C(=O)NC2=O)c2ccccc21` [Ro31-8220], the “block of GPRC6A-mediated extracellular testosterone stimulated signaling” value (GPRC6A [1]) is reported as “blocked” and the “inhibition … of luciferase” value (GPRC6A [2]) is reported as “inhibited”.

With `[Ca+2]` [extracellular calcium, calcium] the “stimulation of phospho-ERK in BMSC” value [4, 9] was “failed to responds” and the “stimulation of phospho-ERK in BMSC” value ([4]; BMSC from wild-type mice) was “stimulation of ERK phosphorylation”.

For `C[C@]12CC[C@H](O)CC1=CC[C@@H]1[C@@H]2CC[C@]2(C)C(=O)CC[C@@H]12` [DHEA, Dehydroandrosterone], the “GPRC6A-mediated activation of phospho-ERK” value (GPRC6A [1]; [8]) was “stimulated the GPRC6A-mediated activation of phospho-ERK”.

For `CC(=O)[C@H]1CC[C@H]2[C@@H]3CCC4=CC(=O)CC[C@]4(C)[C@H]3CC[C@]12C` [progesterone], the “GPRC6A-mediated activation of phospho-ERK” value (GPRC6A [1]; concentrations up to 80 nM) was “no effect”.

With pertussis toxin the “block of testosterone and β-estradiol stimulated activation of phospho-ERK” value (GPRC6A [1]; 100 ng/ml PTx, stimuli at 50 nM) was “significantly blocked”.
